Experimental data reported in ChEMBL document CHEMBL4130593, “Identification of an Indazole-Based Pharmacophore for the Inhibition of FGFR Kinases Using Fragment-Led de Novo Design” (ACS Med Chem Lett, 2017).

What was measured:
[1] = molecular target: T1, Fibroblast growth factor receptor 1 (Homo sapiens, UniProt P11362); test: Inhibition of recombinant human His-tagged FGFR1 cytoplasmic domain (308 to 731 residues) expressed in baculovirus expression system at 100 uM using Tyr 04 as substrate measured after 1 hr by Z'-LYTE assay relative to control
[2] = molecular target: T1, Fibroblast growth factor receptor 1; test: Inhibition of recombinant human His-tagged FGFR1 cytoplasmic domain (308 to 731 residues) expressed in baculovirus expression system at 500 uM using Tyr 04 as substrate measured after 1 hr by Z'-LYTE assay relative to control
[3] = molecular target: T1, Fibroblast growth factor receptor 1; test: Inhibition of recombinant human His-tagged FGFR1 cytoplasmic domain (308 to 731 residues) expressed in baculovirus expression system using Tyr 04 as substrate measured after 1 hr by Z'-LYTE assay
[4] = molecular target: Fibroblast growth factor receptor 3 (Homo sapiens, UniProt P22607); test: Inhibition of recombinant human His-tagged FGFR3 cytoplasmic domain (399 to 806 residues) expressed in baculovirus expression system using Tyr 04 as substrate measured after 1 hr by Z'-LYTE assay
Sequence of Fibroblast growth factor receptor 3 (P22607 whole entry, the tested form may be a part): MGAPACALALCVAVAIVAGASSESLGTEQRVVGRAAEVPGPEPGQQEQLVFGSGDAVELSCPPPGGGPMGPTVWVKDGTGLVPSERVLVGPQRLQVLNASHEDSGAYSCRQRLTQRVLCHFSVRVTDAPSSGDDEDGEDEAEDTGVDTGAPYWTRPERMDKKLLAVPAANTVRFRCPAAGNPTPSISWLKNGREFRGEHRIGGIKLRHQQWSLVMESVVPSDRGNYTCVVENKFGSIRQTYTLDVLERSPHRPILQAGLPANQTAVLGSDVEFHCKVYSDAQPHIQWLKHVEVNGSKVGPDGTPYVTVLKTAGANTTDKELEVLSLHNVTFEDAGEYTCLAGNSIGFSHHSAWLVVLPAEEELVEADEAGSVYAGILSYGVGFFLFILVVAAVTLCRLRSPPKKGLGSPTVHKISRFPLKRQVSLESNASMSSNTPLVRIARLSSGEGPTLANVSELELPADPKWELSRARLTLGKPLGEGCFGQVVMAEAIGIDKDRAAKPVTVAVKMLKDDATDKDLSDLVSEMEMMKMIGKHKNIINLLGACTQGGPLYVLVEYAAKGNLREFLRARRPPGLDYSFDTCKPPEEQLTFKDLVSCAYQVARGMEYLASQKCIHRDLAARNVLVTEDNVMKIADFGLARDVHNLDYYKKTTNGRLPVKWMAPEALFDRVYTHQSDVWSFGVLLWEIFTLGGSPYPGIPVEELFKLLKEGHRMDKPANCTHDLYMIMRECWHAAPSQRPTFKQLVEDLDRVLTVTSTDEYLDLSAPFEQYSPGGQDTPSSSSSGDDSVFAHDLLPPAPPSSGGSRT

T1 sequence (P11362 whole entry, the tested form may be a part): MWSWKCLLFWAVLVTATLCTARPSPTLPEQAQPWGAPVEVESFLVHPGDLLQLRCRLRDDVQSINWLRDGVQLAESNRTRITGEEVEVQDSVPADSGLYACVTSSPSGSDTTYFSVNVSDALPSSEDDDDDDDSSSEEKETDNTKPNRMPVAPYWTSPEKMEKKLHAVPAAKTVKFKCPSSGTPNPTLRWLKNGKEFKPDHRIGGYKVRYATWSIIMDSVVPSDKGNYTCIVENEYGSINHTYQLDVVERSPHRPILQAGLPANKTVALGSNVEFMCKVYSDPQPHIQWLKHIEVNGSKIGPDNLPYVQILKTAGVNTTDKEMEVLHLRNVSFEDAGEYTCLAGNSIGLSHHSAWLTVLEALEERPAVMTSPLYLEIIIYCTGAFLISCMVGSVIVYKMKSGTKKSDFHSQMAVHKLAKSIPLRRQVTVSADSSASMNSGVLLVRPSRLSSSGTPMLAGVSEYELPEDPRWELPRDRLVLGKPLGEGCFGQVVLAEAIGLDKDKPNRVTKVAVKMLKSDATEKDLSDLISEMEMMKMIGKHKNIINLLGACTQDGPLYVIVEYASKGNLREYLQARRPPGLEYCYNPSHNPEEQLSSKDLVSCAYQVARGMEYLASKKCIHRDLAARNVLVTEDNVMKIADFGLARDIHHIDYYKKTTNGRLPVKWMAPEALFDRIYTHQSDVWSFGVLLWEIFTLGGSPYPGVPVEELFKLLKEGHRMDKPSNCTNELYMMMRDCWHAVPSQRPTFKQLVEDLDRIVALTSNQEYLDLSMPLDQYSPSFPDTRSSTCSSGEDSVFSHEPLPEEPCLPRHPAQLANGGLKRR

inhibition at 100 µM [1] [%]	IC50 [3] [µM]	SMILES	also measured
32	–	Clc1cccc(-c2ccc3cn[nH]c3c2)c1	–
–	> 500	Clc1cncc(-c2ccc3cc[nH]c3c2)c1	inhibition at 500 µM [2]: 21%
–	–	c1ccc(-c2ccc3cc[nH]c3c2)cc1	inhibition at 500 µM [2]: 1%
–	36	Clc1cncc(-c2ccc3cn[nH]c3c2)c1	inhibition at 500 µM [2]: 73%
–	> 100	CCOc1ccc(F)c(-c2ccc3cn[nH]c3c2)c1F	IC50 [4]: > 100 µM
19	–	Fc1cccc(-c2ccc3cn[nH]c3c2)c1	–
–	9.9	Oc1ccc(-c2ccc3cn[nH]c3c2)c(F)c1	IC50 [4]: > 100 µM
–	83	CCOc1cc(F)cc(-c2ccc3cn[nH]c3c2)c1	IC50 [4]: > 100 µM
11	–	COc1ccc(-c2ccc3cn[nH]c3c2)cc1	–
–	14	Oc1ccc(-c2ccc3cn[nH]c3c2)cc1F	–
-5	–	FC(F)(F)c1cc(-c2ccc3cn[nH]c3c2)cc(C(F)(F)F)c1	–
–	9.7	CCOc1cccc(-c2ccc3cn[nH]c3c2)c1F	IC50 [4]: > 100 µM
–	90	c1cncc(-c2ccc3cn[nH]c3c2)c1	inhibition at 500 µM [2]: 66%
20	–	c1cc(-c2ccc3cn[nH]c3c2)cs1	–
–	77	c1ccc(-c2ccc3cn[nH]c3c2)cc1	inhibition at 500 µM [2]: 53%
–	8.8	Cc1cc(-c2ccc3cn[nH]c3c2)ccc1O	–
12	–	Clc1ccc(-c2ccc3cn[nH]c3c2)cc1	–
–	6.4	Cc1cc(O)ccc1-c1ccc2cn[nH]c2c1	–
19	–	Cc1csc(-c2ccc3cn[nH]c3c2)c1	–
29	–	c1coc(-c2ccc3cn[nH]c3c2)c1	–
–	–	c1cncc(-c2ccc3cc[nH]c3c2)c1	inhibition at 500 µM [2]: 16%
